Each molecule was assayed against T1, human calcium-sensing receptor (CaSR) (Homo sapiens, UniProt P41180) (assay: Inhibitory activity on calcium-sensing receptor (CaSR), intracellular calcium increase as indicator (FLIPR, CHO/hCaSR)). Conditions: CHO cells stably expressing human CaSR; inhibition of intracellular Ca increase induced by extracellular CaCl2.
T1 construct: expressed in transfected cells
T1 sequence (P41180 20-1078): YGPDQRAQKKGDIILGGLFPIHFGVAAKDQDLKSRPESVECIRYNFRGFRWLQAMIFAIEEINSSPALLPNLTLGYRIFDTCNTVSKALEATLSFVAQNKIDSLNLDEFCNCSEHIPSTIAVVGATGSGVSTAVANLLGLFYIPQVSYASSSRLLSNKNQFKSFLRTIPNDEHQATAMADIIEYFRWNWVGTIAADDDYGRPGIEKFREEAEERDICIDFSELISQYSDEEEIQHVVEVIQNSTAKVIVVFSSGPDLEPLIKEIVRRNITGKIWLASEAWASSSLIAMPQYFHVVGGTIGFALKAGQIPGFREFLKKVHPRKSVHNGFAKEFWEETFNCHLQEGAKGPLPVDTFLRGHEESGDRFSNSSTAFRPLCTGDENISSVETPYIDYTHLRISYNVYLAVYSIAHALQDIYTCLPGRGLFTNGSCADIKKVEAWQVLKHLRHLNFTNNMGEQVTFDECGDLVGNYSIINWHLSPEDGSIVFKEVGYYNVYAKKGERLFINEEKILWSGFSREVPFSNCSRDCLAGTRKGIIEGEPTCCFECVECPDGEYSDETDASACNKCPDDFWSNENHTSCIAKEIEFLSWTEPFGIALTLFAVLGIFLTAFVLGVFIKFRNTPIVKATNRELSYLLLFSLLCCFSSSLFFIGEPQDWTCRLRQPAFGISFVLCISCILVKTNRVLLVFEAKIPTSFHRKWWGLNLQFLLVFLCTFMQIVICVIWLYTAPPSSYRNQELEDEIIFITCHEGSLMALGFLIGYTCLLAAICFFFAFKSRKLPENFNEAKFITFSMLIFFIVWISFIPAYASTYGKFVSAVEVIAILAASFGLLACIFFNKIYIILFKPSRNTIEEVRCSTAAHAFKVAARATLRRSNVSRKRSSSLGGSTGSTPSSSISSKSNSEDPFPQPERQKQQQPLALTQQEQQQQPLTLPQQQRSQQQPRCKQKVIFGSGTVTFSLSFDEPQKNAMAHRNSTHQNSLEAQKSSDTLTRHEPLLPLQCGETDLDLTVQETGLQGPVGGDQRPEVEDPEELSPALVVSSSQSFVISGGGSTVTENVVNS
Type: cell-based
Description: Evaluation of inhibitory activity on calcium-sensing receptor (CaSR) using intracellular calcium increase as an indicator
The preparation which is prepared by adding CHO/hCaSR to F12 medium (manufactured by Invitrogen) containing 10% fetal bovine serum to have 2×10^5 cells/mL was applied to a 384-well in an amount of 50 μL/well, and then incubated overnight in a CO2 incubator. The culture supernatant was completely removed, the assay buffer (20 mM HEPES, HBSS (Ca and Mg free) containing 2.5 mM probenecid, pH 7.4) containing Calcium 3 (manufactured by Molecular Devices), i.e., a fluorescent intracellular calcium indicator, was added thereto in an amount of 25 μL/well, and the mixture was maintained for 1 hour in a CO2 incubator. Meanwhile, Calcium 3 was prepared according to the protocol enclosed in FLIPR Calcium 3 Assay Kit (manufactured by Molecular Devices). After maintaining it for 1 hour, a solution in which the test compound is prepared to have 2.1 to 20,000 nM (final concentration of 1.05 to 10,000 nM) by an assay buffer was added thereto in an amount of 25 μL/well, and maintained for 15 minutes in a CO2 incubator. Then, the CaCl2 solution prepared to have […] by using the assay buffer was added in an amount of 25 μL/well, and the resulting intracellular Ca increase (i.e., fluorescence intensity) was measured over time using a fluorescence imaging plate reader (FLIPR, manufactured by Molecular Devices). From the data obtained, the difference between the fluorescence intensity before the addition of CaCl2 solution and the maximum fluorescence intensity after the addition of CaCl2 solution was calculated, and the 50% inhibition concentration (IC50) of the test compound was obtained.

SMILES | IC50 [µM]
CC[C@@H](OC[C@H](O)CN1CCC[C@H]1Cc1ccc(Cl)c(F)c1)c1cc(F)cc(F)c1CCC(=O)O [Example 141] | ≤ 3.11
Cc1ccc(C[C@@H]2CCCN2C[C@@H](O)CO[C@H](C)c2cccc(C)c2CCC(=O)O)cc1Cl [Example 169] | ≤ 3.38
Cc1ccc(C[C@@H]2CCCN2C[C@@H](O)CO[C@H](C)c2cccc(F)c2CCC(=O)O)cc1Cl [Example 90] | ≤ 3.35
Cc1ccc([C@@H](C)OC[C@H](O)CN2CCC[C@H]2Cc2ccc(Cl)c(F)c2)c(CCC(=O)O)c1 [Example 128] | ≤ 3.35
CC[C@@H](OC[C@H](O)CN1CCC[C@H]1Cc1ccc(C)c(F)c1)c1cccc(C)c1CCC(=O)O [Example 47] | ≤ 3.39
Cc1ccc(C[C@@H]2CCCN2C[C@@H](O)CO[C@H](C)c2cccc(Cl)c2CCC(=O)O)cc1Cl [Example 150] | ≤ 3.24
CC[C@@H](OC[C@H](O)CN1CCC[C@H]1Cc1ccc(C)c(F)c1)c1ccccc1CCC(=O)O [Example 19] | ≤ 3.5
CCC[C@@H](OC[C@H](O)CN1CCC[C@H]1Cc1ccc(C)c(F)c1)c1ccc(Cl)cc1CCC(=O)O [Example 124] | ≤ 3.16
CCc1cc(C[C@@H]2CCCN2C[C@@H](O)CO[C@H](C)c2cccc(F)c2CCC(=O)O)ccc1Cl [Example 93] | ≤ 3.25
C[C@@H](OC[C@H](O)CN1CCC[C@H]1Cc1ccc(Cl)c(F)c1)c1cc(F)c(F)cc1CCC(=O)O [Example 149] | ≤ 3.2
COc1cc(F)cc([C@@H](C)OC[C@H](O)CN2CCC[C@H]2Cc2ccc(C)c(F)c2)c1CCC(=O)O [Example 33] | ≤ 3.25
CC[C@@H](OC[C@H](O)CN1CCC[C@H]1Cc1ccc(Cl)c(Cl)c1)c1cccc(OC)c1CCC(=O)O [Example 115] | ≤ 3.05
CC[C@@H](OC[C@H](O)CN1CCC[C@H]1Cc1ccc(C)c(Cl)c1)c1ccc(C)cc1CCC(=O)O [Example 136] | ≤ 3.28
C[C@@H](OC[C@H](O)CN1CCC[C@H]1Cc1ccc(Cl)c(F)c1)c1ccc(Cl)cc1CCC(=O)O [Example 131] | ≤ 3.21
Cc1ccc(C[C@@H]2CCCN2C[C@@H](O)CO[C@H](C)c2cccc(F)c2CCC(=O)O)cc1F [Example 6, 3-{2-Fluoro-6-[(1R)-1-({(2R)-3-[(2S)-2-(3-fluoro-4-methylbenzyl)pyrrolidin-1-yl]-2-hydroxypropyl}oxy)ethyl]phenyl}propanoic acid] | ≤ 3.47
CCc1cc(C[C@@H]2CCCN2C[C@@H](O)CO[C@H](C)c2cccc(C)c2CCC(=O)O)ccc1Cl [Example 163] | ≤ 3.28
Cc1ccc([C@@H](C)OC[C@H](O)CN2CCC[C@H]2Cc2ccc(C)c(F)c2)c(CCC(=O)O)c1 [Example 4, 3-{2-[(1R)-1-({(2R)-3-[(2S)-2-(3-Fluoro-4-methylbenzyl)pyrrolidin-1-yl]-2-hydroxypropyl}oxy)ethyl]-5-methylphenyl}propanoic acid] | ≤ 3.5
CCc1cc(C[C@@H]2CCCN2C[C@@H](O)CO[C@H](CC)c2ccc(C)cc2CCC(=O)O)ccc1Cl [Example 103] | ≤ 3.19
Cc1ccc(C[C@@H]2CCCN2C[C@@H](O)COC(C)c2c(Cl)cccc2CCC(=O)O)cc1F (stereo partly shown) [Example 157] | ≤ 3.35
CCc1cc(C[C@@H]2CCCN2C[C@@H](O)CO[C@H](C)c2cccc(Cl)c2CCC(=O)O)ccc1Cl [Example 152] | ≤ 3.15
Cc1ccc([C@@H](C)OC[C@H](O)CN2CCC[C@H]2Cc2ccc(C)c(F)c2)c(CCCCC(=O)O)c1 [Example 53] | ≤ 3.29
C[C@@H](OC[C@H](O)CN1CCC[C@H]1Cc1ccc(Cl)c(Cl)c1)c1cccc(F)c1CCC(=O)O [Example 92] | ≤ 3.21
Cc1ccc([C@@H](C)OC[C@H](O)CN2CCC[C@H]2Cc2ccc(C)c(Cl)c2)c(CCC(=O)O)c1 [Example 126] | ≤ 3.38

SMILES | IC50 [µM]
Cc1ccc(C[C@@H]2CCCN2C[C@@H](O)CO[C@H](C)c2cc(F)c(F)cc2CCCCC(=O)O)cc1F [Example 30] | ≤ 3.15
CCc1cc(C[C@@H]2CCCN2C[C@@H](O)CO[C@H](C)c2cc(F)c(C)cc2CCC(=O)O)ccc1Cl [Example 146] | ≤ 3.16
Cc1ccc(C[C@@H]2CCCN2C[C@@H](O)CO[C@@H](c2ccccc2CCC(=O)O)C2CC2)cc1F [Example 29] | ≤ 3.41
C[C@@H](OC[C@H](O)CN1CCC[C@H]1Cc1ccc(Cl)c(F)c1)c1ccccc1CCC(=O)O [Example 159] | ≤ 3.45
CC[C@@H](OC[C@H](O)CN1CCC[C@H]1Cc1ccc(Cl)c(Cl)c1)c1cccc(F)c1CCC(=O)O [Example 108] | ≤ 3.12
C[C@@H](OC[C@H](O)CN1CCC[C@H]1Cc1ccc(Cl)c(Cl)c1)c1cc(F)c(F)cc1CCC(=O)O [Example 177] | ≤ 3.1
CC[C@@H](OC[C@H](O)CN1CCC[C@H]1Cc1ccc(C)c(F)c1)c1ccc(C)cc1CCC(=O)O [Example 45] | ≤ 3.39
Cc1ccc(C[C@@H]2CCCN2C[C@@H](O)CO[C@H](C)c2cc(F)ccc2CCCCC(=O)O)cc1F [Example 55] | ≤ 3.27
Cc1ccc(C[C@@H]2CCCN2C[C@@H](O)CO[C@H](C)c2cccc(OC(C)C)c2CCC(=O)O)cc1F [Example 73] | ≤ 3.19
CCC[C@@H](OC[C@H](O)CN1CCC[C@H]1Cc1ccc(C)c(F)c1)c1cc(Cl)ccc1CCC(=O)O [Example 123] | ≤ 3.16
CC[C@@H](OC[C@H](O)CN1CCC[C@H]1Cc1ccc(C)c(Cl)c1)c1cccc(C)c1CCC(=O)O [Example 172] | ≤ 3.28
C[C@@H](OC[C@H](O)CN1CCC[C@H]1Cc1ccc(Cl)c(Cl)c1)c1cc(F)cc(F)c1CCC(=O)O [Example 106] | ≤ 3.1
CCc1cc(C[C@@H]2CCCN2C[C@@H](O)CO[C@H](CC)c2cc(F)cc(F)c2CCC(=O)O)ccc1Cl [Example 111] | ≤ 3.05
Cc1ccc(C[C@@H]2CCCN2C[C@@H](O)CO[C@H](C)c2ccccc2CCC(=O)O)cc1F [Example 2, 3-{2-[(1R)-1-({(2R)-3-[(2S)-2-(3-Fluoro-4-methylbenzyl)pyrrolidin-1-yl]-2-hydroxypropyl}oxy)ethyl]phenyl}propanoic acid] | ≤ 3.61
CC[C@@H](OC[C@H](O)CN1CCC[C@H]1Cc1ccc(Cl)c(F)c1)c1cc(F)ccc1CCC(=O)O [Example 135] | ≤ 3.23
Cc1ccc(C[C@@H]2CCCN2C[C@@H](O)CO[C@H](C)c2ccc(F)c(C)c2CCC(=O)O)cc1F [Example 20] | ≤ 3.36
Cc1ccc(C[C@@H]2CCCN2C[C@@H](O)CO[C@H](C)c2ccccc2CCCCCC(=O)O)cc1F [Example 76] | ≤ 3.29
COc1cccc([C@@H](C)OC[C@H](O)CN2CCC[C@H]2Cc2ccc(Cl)c(F)c2)c1CCC(=O)O [Example 168] | ≤ 3.24
CC[C@@H](OC[C@H](O)CN1CCC[C@H]1Cc1ccc(Cl)c(F)c1)c1cccc(F)c1CCC(=O)O [Example 139] | ≤ 3.23
CC[C@@H](OC[C@H](O)CN1CCC[C@H]1Cc1ccc(C)c(Cl)c1)c1ccc(Cl)cc1CCC(=O)O [Example 129] | ≤ 3.15
CCc1cc(C[C@@H]2CCCN2C[C@@H](O)CO[C@H](C)c2cc(F)ccc2CCC(=O)O)ccc1Cl [Example 99] | ≤ 3.25
Cc1ccc(C[C@@H]2CCN2C[C@@H](O)CO[C@H](C)c2ccccc2CCCCC(=O)O)cc1F [Example 15, 5-{2-[(1R)-1-({(2R)-3-[(2R)-2-(3-Fluoro-4-methylbenzyl)azetidin-1-yl]-2-hydroxypropyl}oxy)ethyl]phenyl}pentanoic acid] | ≤ 3.5
CC[C@@H](OC[C@H](O)CN1CCC[C@H]1Cc1ccc(Cl)c(Cl)c1)c1cc(F)cc(F)c1CCC(=O)O [Example 110] | ≤ 3.02
